One series deals with T1, HIV-RT (Human immunodeficiency virus type 1 group M subtype B, UniProt P03366).
T1 construct: HIV-RT HIV reverse transcriptase; purchased Roboklon
Kind of series: Primer extension assay using HIV-RT. The following applies: 30 min, 6 U HIV-RT, 37 °C. The class given is biochemical. As for the experimental part:
Figure 6 Primer extension assay using HIV-RT (A), human polymerases α (B), β (C), and γ (D). (Figure 6A). Primer extension assay using HIV-RT (30 min, 6U). Lane 1: (+) dATP, dCTP, dGTP, and TTP with HIV-RT. Lane 2: (−) dATP, dCTP, dGTP, and TTP without HIV-RT. Lane 3: TTP. […] Lane 5: δ-(C4; C18)-d4T4P 4d. […] Lane 7: δ-(C18)-d4T4P 20. Lane 8: δ-C-(C18)-d4T4P 24. Lane 9: d4T4P. Lane 10: d4TTP. Lane 11: d4TDP. HIV-RT assay reaction conditions: 50 mM Tris–HCl (pH 8.6), 10 mM MgCl2, 40 mM KCl, 250 μM dNTPs, HIV-RT (6 U), 0.20 μM DNA hybrid, primer-template-hybrid 0.32 mM in a reaction volume of 10 μL, incubated at 37 °C for 0.5 h, 80 °C for 7 min. Primer extension assays: 50 mA, 45 w for 4 h. (Figure 6B). For human DNA polymerase α assay (60 min, 2 U): Lane 1: (+) dATP, dCTP, dGTP, and TTP with human polymerase α. Lane 2: (−) dATP, dCTP, dGTP, and TTP without human polymerase α. Lane 3: TTP. […] Lane 5: δ-(C4; C18)-d4T4P 4d. […] Lane 7: δ-(C18)-d4T4P 20. Lane 8: δ-C-(C18)-d4T4P 24. Lane 9: d4T4P. Lane 10: d4TTP. Human DNA polymerase α assay conditions: 60 mM Tris–HCl (pH 8), 5 mM Mg(OAc)2, 100 mM KCl, 1.0 mM dithiothreitol, 0.1 mM spermine, 0.01% (w/v) bovine serum albumin, 250 μM dNTPs, 2 U human polymerase α, 0.20 μM DNA hybrid, and primer-template-hybrid 0.32 mM in a reaction volume of 10 μL, incubated at 37 °C for 1 h, 80 °C for 7 min. Primer extension assays: 50 mA, 45 w for 3 h. (Figure 6C). For human DNA polymerase β assay (60 min, 2 U): Lane 1: (+) dATP, dCTP, dGTP, and TTP with human polymerase β. Lane 2: (−) dATP, dCTP, dGTP, and TTP without human polymerase β. Lane 3: TTP. […] Lane 5: δ-(C4; C18)-d4T4P 4d. […] Lane 7: δ-(C18)-d4T4P 20. Lane 8: δ-C-(C18)-d4T4P 24. Lane 9: d4T4P. Lane 10: d4TTP. Human DNA polymerase β assay conditions: 50 mM Tris–HCl (pH 8.7), 10 mM Mg(OAc)2, 100 mM KCl, 1.0 mM dithiothreitol, 0.1 mM spermine, 0.01% (w/v) bovine serum albumin, 15% glycerol, 250 μM dNTPs, 2 U human DNA polymerase β, 0.20 μM DNA hybrid, and primer-template-hybrid 0.32 mM in a reaction volume of 10 μL, incubated at 37 °C for 1 h, 80 °C for 7 min. Primer extension assays: 50 mA, 45 w for 3 h. (Figure 6D), For the human DNA polymerase γ assay (120 min, 2 U): Lane 1: (+) dATP, dCTP, dGTP, and TTP with human polymerase γ. Lane 2: (−) dATP, dCTP, dGTP, and TTP without human polymerase γ. Lane 3: TTP. […] Lane 5: δ-(C4; C18)-d4T4P 4d. […] Lane 7: δ-(C18)-d4T4P 20. Lane 8: δ-C-(C18)-d4T4P 24. Lane 9: d4T4P. Lane 10: d4TTP. Human polymerase γ assay conditions: 60 mM Tris–HCl (pH 8), 5 mM Mg(OAc)2, 1.0 mM dithiothreitol, 0.1 mM spermine, 0.01% (w/v) bovine serum albumin, 250 μM dNTPs, 2 U human polymerase γ, 0.5 μM MnCl2, 0.20 μM DNA hybrid, primer-template-hybrid 0.32 mM in a reaction volume of 10 μL, incubated at 37 °C for 2 h, 80 °C for 7 min. Primer extension assays: 50 mA, 45 w for 3 h.
HIV-RT and human polymerases α, β, and γ were bought from Roboklon and Chimerx. The fluorescent-labeled primer and template were obtained from Metabion.
For the annealing of the primer/template mixture, 40 μL of the 10 μM primer and 60 μL of the 10 μM template were incubated for 5 min at 95 °C. Then, for optimal annealing, the temperature was reduced over a period of 2 h to 20 °C and incubated again for 20 min at 20 °C.
For the primer extension, the reaction mixture was incubated for 30 min for the HIV-RT, 60 min for the human DNA polymerase α, and 120 min for the human DNA polymerases β and γ at 37 °C, followed by 7 min at 80 °C.

Series [1] can be described thus: Chemical hydrolysis in aqueous buffers (PBS pH 7.3 / 8.0, citrate buffer pH 2.0), RP18-HPLC. The class given is physicochemical. The following applies: for half-life: 25 mM citrate buffer, pH 2.0, 37 °C; for half-life at 1.9 mM: phosphate buffered saline. In short, it runs like this:
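Compound incubated at 37 °C in PBS pH 7.3 or 8.0, or citrate/NaCl/HCl buffer adjusted to pH 2.0 with NaOH. Aliquots sampled over time, stored at −30 °C, and hydrolysis products quantified by RP18-HPLC with UV detection.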

Setting [2] is: 25 mM PBS, pH 7.3, 37 °C, read-out: PBS pH 7.3 t1/2 (converted).
Setting [3] is: PBS, pH 8.0, 37 °C, read-out: PBS pH 8.0 t1/2 (converted).

Where two headings read alike, the source gives them in different places.

Results on 5 molecules are retold here after article PMC10895676, “Antiviral Activity of Lipophilic Nucleoside Tetraphosphate Compounds” (Journal of Medicinal Chemistry, 2024).

Regarding `CCCCCCCCCCCCCCCCCCP(=O)(OCCCC)OP(=O)(O)OP(=O)(O)OP(=O)(O)OC[C@@H]1C=C[C@H](n2cc(C)c(=O)[nH]c2=O)O1` (stereo partly shown) [5a, δ-(Alkyl-C4)-δ-C-(alkyl-C18)-d4T4P], the “substrate for HIV-RT (primer extension)” value on HIV-RT is “good substrates”. In addition, the half-life in series [1] was over 6.25 days. Moreover, the half-life at 1.9 mM was over 41.7 days in series [1] (setting [2]) and over 8.33 days in series [1] (setting [3]).

As to `Cc1cn([C@H]2C=C[C@@H](COP(=O)(O)OP(=O)(O)OP(=O)(O)OP(=O)(O)O)O2)c(=O)[nH]c1=O` [d4T4P, 2′,3′-didehydro-2′,3′-dideoxythymidine-5′-tetraphosphate], the “substrate for HIV-RT (primer extension)” value on HIV-RT was “substrate”. The same molecule displayed a half-life in series [1] of over 6.25 days. The half-life at 1.9 mM in series [1] (setting [2]) is 22.2 days; in series [1] (setting [3]), over 6.25 days.

As to `CCCCCCCCCCCCCCCCCCOP(=O)(OCCCC)OP(=O)(O)OP(=O)(O)OP(=O)(O)OC[C@@H]1C=C[C@H](n2cc(C)c(=O)[nH]c2=O)O1` (stereo partly shown) [4d, δ-(Alkyl-C4; alkyl-C18)-d4T4P], the “substrate for HIV-RT (primer extension)” value at HIV-RT is “good substrates”. In addition, the half-life in series [1] was 2.75 days. The half-life at 1.9 mM in series [1] (setting [2]) was 10.5 days; in series [1] (setting [3]), over 4.17 days.

`CCCCCCCCCCCCCCCCCCOP(=O)(O)OP(=O)(O)OP(=O)(O)OP(=O)(O)OC[C@@H]1C=C[C@H](n2cc(C)c(=O)[nH]c2=O)O1` [compound 20, δ-(Alkyl-C18)-d4T4P]: the “substrate for HIV-RT (primer extension)” value on HIV-RT was “substrates”. Besides, the half-life at 1.9 mM in series [1] (setting [2]) is 5.5 days.

For `CCCCCCCCCCCCCCCCCCP(=O)(O)OP(=O)(O)OP(=O)(O)OP(=O)(O)OC[C@@H]1C=C[C@H](n2cc(C)c(=O)[nH]c2=O)O1` [compound 24, δ-C-(Alkyl-C18)-d4T4P], the “substrate for HIV-RT (primer extension)” value on HIV-RT is recorded as “substrates”. Also, in series [1] (setting [2]), the half-life at 1.9 mM was over 41.7 days.
